{"source": "the supplement of paper PMC10307832", "test_in_all_cases": "relative viability (nuclei count vs DMSO), 5 days (fraction); higher = more cells survive", "key": {"[1]": {"test_system": "201T", "method_in_brief": "(§1)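 Values are medians from duplicate plates. Each reflects relative viability, defined as the nuclei count of treated wells over that of vehicle wells. Lung cancer cell lines in 1536-well plates were pin-tool dosed one day after seeding with one drug alone or with a fixed anchor-drug dose plus five library-drug doses (not always all listed) in √10 steps, then fixed, stained and imaged at 4× after 5 days.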"}, "[2]": {"test_system": "A-427", "method_in_brief": "as §1"}, "[3]": {"test_system": "ABC-1", "method_in_brief": "as §1"}, "[4]": {"test_system": "BEN", "method_in_brief": "as §1"}, "[5]": {"test_system": "CAL-12T", "method_in_brief": "as §1"}, "[6]": {"test_system": "H3255", "method_in_brief": "as §1"}, "[7]": {"test_system": "LC-2-ad", "method_in_brief": "as §1"}, "[8]": {"test_system": "LCLC-97TM1", "method_in_brief": "as §1"}, "[9]": {"test_system": "NCI-H1650", "method_in_brief": "as §1"}, "[10]": {"test_system": "NCI-H1651", "method_in_brief": "as §1"}, "[11]": {"test_system": "NCI-H1792", "method_in_brief": "as §1"}, "[12]": {"test_system": "NCI-H1915", "method_in_brief": "as §1"}, "[13]": {"test_system": "NCI-H1944", "method_in_brief": "as §1"}, "[14]": {"test_system": "NCI-H2023", "method_in_brief": "as §1"}, "[15]": {"test_system": "NCI-H2087", "method_in_brief": "as §1"}, "[16]": {"test_system": "NCI-H441", "method_in_brief": "as §1"}, "[17]": {"test_system": "NCI-H460", "method_in_brief": "as §1"}, "[18]": {"test_system": "NCI-H520", "method_in_brief": "as §1"}, "[19]": {"test_system": "NCI-H596", "method_in_brief": "as §1"}, "[20]": {"test_system": "NCI-H650", "method_in_brief": "as §1"}, "[21]": {"test_system": "NCI-H661", "method_in_brief": "as §1"}, "[22]": {"test_system": "NCI-H727", "method_in_brief": "as §1"}, "[23]": {"test_system": "PC-3 [JPC-3]", "method_in_brief": "as §1"}}, "data": [{"smiles": "O=C(O)c1ccc(-c2c[nH]c3ncc(-c4ccccc4)cc23)cc1C1CCCC1", "note": "+ C[C@@H](Oc1cc(-c2cnn(C3CCNCC3)c2)cnc1N)c1c(Cl)ccc(F)c1Cl [Crizotinib] (partner 1 µM)", "values": [{"measurement": "relative viability", "setting": "[1]; first compound 0.04 µM", "result": 1.06}, {"measurement": "relative viability", "setting": "[1]; first compound 0.1265 µM", "result": 1.04}, {"measurement": "relative viability", "setting": "[1]; first compound 0.4 µM", "result": 0.941}, {"measurement": "relative viability", "setting": "[1]; first compound 1.265 µM", "result": 0.979}, {"measurement": "relative viability", "setting": "[2]; first compound 0.04 µM", "result": 0.941}, {"measurement": "relative viability", "setting": "[2]; first compound 0.1265 µM", "result": 0.845}, {"measurement": "relative viability", "setting": "[2]; first compound 0.4 µM", "result": 0.86}, {"measurement": "relative viability", "setting": "[2]; first compound 1.265 µM", "result": 0.852}, {"measurement": "relative viability", "setting": "[3]; first compound 0.04 µM", "result": 1.4}, {"measurement": "relative viability", "setting": "[3]; first compound 0.1265 µM", "result": 1.06}, {"measurement": "relative viability", "setting": "[3]; first compound 0.4 µM", "result": 1.18}, {"measurement": "relative viability", "setting": "[3]; first compound 1.265 µM", "result": 0.98}, {"measurement": "relative viability", "setting": "[4]; first compound 0.04 µM", "result": 0.89}, {"measurement": "relative viability", "setting": "[4]; first compound 0.1265 µM", "result": 0.996}, {"measurement": "relative viability", "setting": "[4]; first compound 0.4 µM", "result": 0.885}, {"measurement": "relative viability", "setting": "[4]; first compound 1.265 µM", "result": 0.774}, {"measurement": "relative viability", "setting": "[5]; first compound 0.04 µM", "result": 0.633}, {"measurement": "relative viability", "setting": "[5]; first compound 0.1265 µM", "result": 0.755}, {"measurement": "relative viability", "setting": "[5]; first compound 0.4 µM", "result": 0.701}, {"measurement": "relative viability", "setting": "[5]; first compound 1.265 µM", "result": 0.528}, {"measurement": "relative viability", "setting": "[6]; first compound 0.04 µM", "result": 0.953}, {"measurement": "relative viability", "setting": "[6]; first compound 0.1265 µM", "result": 0.851}, {"measurement": "relative viability", "setting": "[6]; first compound 0.4 µM", "result": 0.825}, {"measurement": "relative viability", "setting": "[6]; first compound 1.265 µM", "result": 0.9}, {"measurement": "relative viability", "setting": "[7]; first compound 0.04 µM", "result": 0.496}, {"measurement": "relative viability", "setting": "[7]; first compound 0.1265 µM", "result": 0.452}, {"measurement": "relative viability", "setting": "[7]; first compound 0.4 µM", "result": 0.412}, {"measurement": "relative viability", "setting": "[7]; first compound 1.265 µM", "result": 0.364}, {"measurement": "relative viability", "setting": "[8]; first compound 0.04 µM", "result": 0.376}, {"measurement": "relative viability", "setting": "[8]; first compound 0.1265 µM", "result": 0.329}, {"measurement": "relative viability", "setting": "[8]; first compound 0.4 µM", "result": 0.234}, {"measurement": "relative viability", "setting": "[8]; first compound 1.265 µM", "result": 0.326}, {"measurement": "relative viability", "setting": "[9]; first compound 0.04 µM", "result": 1.02}, {"measurement": "relative viability", "setting": "[9]; first compound 0.1265 µM", "result": 0.996}, {"measurement": "relative viability", "setting": "[9]; first compound 0.4 µM", "result": 0.917}, {"measurement": "relative viability", "setting": "[9]; first compound 1.265 µM", "result": 0.743}, {"measurement": "relative viability", "setting": "[10]; first compound 0.04 µM", "result": 0.852}, {"measurement": "relative viability", "setting": "[10]; first compound 0.1265 µM", "result": 0.929}, {"measurement": "relative viability", "setting": "[10]; first compound 0.4 µM", "result": 0.822}, {"measurement": "relative viability", "setting": "[10]; first compound 1.265 µM", "result": 0.742}, {"measurement": "relative viability", "setting": "[11]; first compound 0.04 µM", "result": 0.959}, {"measurement": "relative viability", "setting": "[11]; first compound 0.1265 µM", "result": 0.994}, {"measurement": "relative viability", "setting": "[11]; first compound 0.4 µM", "result": 1.03}, {"measurement": "relative viability", "setting": "[11]; first compound 1.265 µM", "result": 0.891}, {"measurement": "relative viability", "setting": "[12]; first compound 0.04 µM", "result": 0.96}, {"measurement": "relative viability", "setting": "[12]; first compound 0.1265 µM", "result": 0.898}, {"measurement": "relative viability", "setting": "[12]; first compound 0.4 µM", "result": 0.67}, {"measurement": "relative viability", "setting": "[12]; first compound 1.265 µM", "result": 0.636}, {"measurement": "relative viability", "setting": "[13]; first compound 0.04 µM", "result": 1.03}, {"measurement": "relative viability", "setting": "[13]; first compound 0.1265 µM", "result": 1.14}, {"measurement": "relative viability", "setting": "[13]; first compound 0.4 µM", "result": 1.08}, {"measurement": "relative viability", "setting": "[13]; first compound 1.265 µM", "result": 1.01}, {"measurement": "relative viability", "setting": "[14]; first compound 0.04 µM", "result": 0.639}, {"measurement": "relative viability", "setting": "[14]; first compound 0.1265 µM", "result": 0.669}, {"measurement": "relative viability", "setting": "[14]; first compound 0.4 µM", "result": 0.572}, {"measurement": "relative viability", "setting": "[14]; first compound 1.265 µM", "result": 0.603}, {"measurement": "relative viability", "setting": "[15]; first compound 0.04 µM", "result": 0.853}, {"measurement": "relative viability", "setting": "[15]; first compound 0.1265 µM", "result": 0.75}, {"measurement": "relative viability", "setting": "[15]; first compound 0.4 µM", "result": 0.833}, {"measurement": "relative viability", "setting": "[15]; first compound 1.265 µM", "result": 0.723}, {"measurement": "relative viability", "setting": "[16]; first compound 0.04 µM", "result": 0.601}, {"measurement": "relative viability", "setting": "[16]; first compound 0.1265 µM", "result": 0.907}, {"measurement": "relative viability", "setting": "[16]; first compound 0.4 µM", "result": 0.689}, {"measurement": "relative viability", "setting": "[16]; first compound 1.265 µM", "result": 0.525}, {"measurement": "relative viability", "setting": "[17]; first compound 0.04 µM", "result": 0.872}, {"measurement": "relative viability", "setting": "[17]; first compound 0.1265 µM", "result": 1.06}, {"measurement": "relative viability", "setting": "[17]; first compound 0.4 µM", "result": 0.83}, {"measurement": "relative viability", "setting": "[17]; first compound 1.265 µM", "result": 0.864}, {"measurement": "relative viability", "setting": "[18]; first compound 0.04 µM", "result": 0.748}, {"measurement": "relative viability", "setting": "[18]; first compound 0.1265 µM", "result": 1.02}, {"measurement": "relative viability", "setting": "[18]; first compound 0.4 µM", "result": 0.744}, {"measurement": "relative viability", "setting": "[18]; first compound 1.265 µM", "result": 0.828}, {"measurement": "relative viability", "setting": "[19]; first compound 0.04 µM", "result": 1}, {"measurement": "relative viability", "setting": "[19]; first compound 0.1265 µM", "result": 1.09}, {"measurement": "relative viability", "setting": "[19]; first compound 0.4 µM", "result": 0.909}, {"measurement": "relative viability", "setting": "[19]; first compound 1.265 µM", "result": 1}, {"measurement": "relative viability", "setting": "[20]; first compound 0.04 µM", "result": 0.762}, {"measurement": "relative viability", "setting": "[20]; first compound 0.1265 µM", "result": 0.844}, {"measurement": "relative viability", "setting": "[20]; first compound 0.4 µM", "result": 0.561}, {"measurement": "relative viability", "setting": "[20]; first compound 1.265 µM", "result": 0.465}, {"measurement": "relative viability", "setting": "[21]; first compound 0.1265 µM", "result": 0.963}, {"measurement": "relative viability", "setting": "[21]; first compound 0.4 µM", "result": 0.967}, {"measurement": "relative viability", "setting": "[21]; first compound 1.265 µM", "result": 1.03}, {"measurement": "relative viability", "setting": "[22]; first compound 0.04 µM", "result": 0.971}, {"measurement": "relative viability", "setting": "[22]; first compound 0.1265 µM", "result": 0.894}, {"measurement": "relative viability", "setting": "[22]; first compound 0.4 µM", "result": 0.738}, {"measurement": "relative viability", "setting": "[22]; first compound 1.265 µM", "result": 0.805}, {"measurement": "relative viability", "setting": "[23]; first compound 0.04 µM", "result": 0.963}, {"measurement": "relative viability", "setting": "[23]; first compound 0.1265 µM", "result": 1.03}, {"measurement": "relative viability", "setting": "[23]; first compound 0.4 µM", "result": 0.968}, {"measurement": "relative viability", "setting": "[23]; first compound 1.265 µM", "result": 0.832}]}]}
